Here are results for 17 compounds from PubChem BioAssay (NCI).

The structures appear in SMILES notation.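 Compound exposure: 48 hours, 5 concentrations, 96-well plates. The concentration for full growth arrest is given as TGI.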 Where only a bound is given, the exact number is not on record here.

Test systems include 786-0 renal; ACHN renal; T-47D breast; NCI-H460 lung; U251 CNS; MOLT-4 leukemia; KM12 colon; HOP-62 NSCLC; SK-MEL-28 melanoma; UO-31 renal; COLO 205 colon; EKVX NSCLC.
Common to all, as to assay: NCI tumour cell line growth inhibition, 48 h

As for `COc1cc(C2SC(N)=Nc3c2c(C)nn3C(=O)c2ccccc2O)ccc1O` (centres undefined), the TGI in the experiment on 786-0 renal, in the experiment on ACHN renal, in the experiment with T-47D breast, with NCI-H460 lung, in the experiment with U251 CNS and with MOLT-4 leukemia was more than 10 µM each time. The TGI with KM12 colon, with HOP-62 NSCLC, with SK-MEL-28 melanoma, in the experiment on UO-31 renal, in the experiment with COLO 205 colon and in the experiment with EKVX NSCLC was more than 10 µM throughout.

As for `CCOC(=O)c1nc2ccccc2nc1Nc1ccc(OC)c(OC)c1`, the TGI in the experiment with 786-0 renal, in the experiment with ACHN renal, with T-47D breast, in the experiment with NCI-H460 lung, in the experiment with U251 CNS and with MOLT-4 leukemia was more than 100 µM throughout. The TGI in the experiment on KM12 colon, in the experiment on HOP-62 NSCLC, with SK-MEL-28 melanoma, in the experiment with UO-31 renal, with COLO 205 colon and in the experiment on EKVX NSCLC was more than 100 µM in each case.

For the compound `Nc1ncc(Cl)c(NCC2(CO)CC(CCc3ccccc3)C2)n1` (centres undefined), the TGI with 786-0 renal, in the experiment with ACHN renal, in the experiment with T-47D breast, with NCI-H460 lung, with U251 CNS and with MOLT-4 leukemia was more than 100 µM each time. In addition, the TGI in the experiment with KM12 colon, in the experiment on HOP-62 NSCLC, with SK-MEL-28 melanoma, in the experiment on UO-31 renal, in the experiment on COLO 205 colon and with EKVX NSCLC was more than 100 µM throughout.

Consider `C/C=C1/CN2CCC3(O)c4ccccc4N4C=C(C(=O)OC)C1CC2C43O` (centres undefined), for which the TGI in the experiment with 786-0 renal, in the experiment on ACHN renal, in the experiment with T-47D breast, in the experiment on NCI-H460 lung, in the experiment on U251 CNS and in the experiment on MOLT-4 leukemia was more than 100 µM each time. The TGI in the experiment on KM12 colon, in the experiment on HOP-62 NSCLC, in the experiment with SK-MEL-28 melanoma, with UO-31 renal, in the experiment on COLO 205 colon and with EKVX NSCLC was more than 100 µM in each case.

Regarding `CCN(CC)CCNC(=O)c1ccc(I)cc1`, the TGI in the experiment on 786-0 renal, in the experiment with ACHN renal, in the experiment with T-47D breast, in the experiment with NCI-H460 lung, in the experiment with U251 CNS and in the experiment with MOLT-4 leukemia was more than 100 µM in each case. Besides, the TGI in the experiment on KM12 colon, in the experiment with HOP-62 NSCLC, in the experiment on SK-MEL-28 melanoma, in the experiment with UO-31 renal, with COLO 205 colon and with EKVX NSCLC was more than 100 µM each time.

With `c1ccc(P(CCP(c2ccccn2)c2ccccn2)c2ccccc2)cc1`, the TGI in the experiment on 786-0 renal is more than 100 µM; in the experiment on ACHN renal, more than 100 µM; in the experiment on T-47D breast, more than 100 µM; in the experiment on NCI-H460 lung, more than 84.9 µM; with U251 CNS, more than 100 µM; with MOLT-4 leukemia, more than 100 µM. Besides, the TGI was more than 100 µM with KM12 colon; more than 100 µM in the experiment on HOP-62 NSCLC; more than 100 µM with SK-MEL-28 melanoma; more than 100 µM with UO-31 renal; 37.8 µM with COLO 205 colon; 9 µM with EKVX NSCLC.

Regarding `O=C(Nc1c(C(F)(F)F)cc(-c2ccccc2)[nH]c1=O)N1CCOCC1`, the TGI in the experiment with 786-0 renal, in the experiment with ACHN renal, with T-47D breast, in the experiment on NCI-H460 lung, in the experiment on U251 CNS and in the experiment with MOLT-4 leukemia was more than 100 µM each time. Moreover, the TGI in the experiment on KM12 colon, with HOP-62 NSCLC, in the experiment with SK-MEL-28 melanoma, with UO-31 renal, in the experiment on COLO 205 colon and in the experiment with EKVX NSCLC was more than 100 µM throughout.

Take `CCOC(=O)C(C(=O)c1ccccc1C(=O)OC)=P(c1ccccc1)(c1ccccc1)c1ccccc1`: the TGI in the experiment on 786-0 renal, in the experiment on ACHN renal, in the experiment with T-47D breast, with NCI-H460 lung, in the experiment with U251 CNS and in the experiment with MOLT-4 leukemia was more than 10 µM throughout. Also, the TGI with KM12 colon, in the experiment with HOP-62 NSCLC, with SK-MEL-28 melanoma, with UO-31 renal, in the experiment with COLO 205 colon and in the experiment with EKVX NSCLC was more than 10 µM throughout.

Consider `Cc1ccc(S(=O)(=O)N2C[C@](O)(c3ccccc3)[C@H]2C)cc1`, for which the TGI in the experiment with 786-0 renal, with ACHN renal, in the experiment with T-47D breast, with NCI-H460 lung, in the experiment with U251 CNS and with MOLT-4 leukemia was more than 100 µM in each case. Further, the TGI with KM12 colon, with HOP-62 NSCLC, in the experiment with SK-MEL-28 melanoma, in the experiment with UO-31 renal, with COLO 205 colon and in the experiment on EKVX NSCLC was more than 100 µM throughout.

In the case of `CCCCOC(=O)NC(Nc1cccc(C(F)(F)F)c1)(C(F)(F)F)C(F)(F)F`, the TGI was more than 100 µM in the experiment on 786-0 renal; more than 100 µM in the experiment on ACHN renal; 45.3 µM with T-47D breast; more than 100 µM with NCI-H460 lung; more than 100 µM with U251 CNS; more than 100 µM in the experiment on MOLT-4 leukemia. For the same compound, the TGI in the experiment with KM12 colon, with HOP-62 NSCLC, with SK-MEL-28 melanoma, in the experiment with UO-31 renal, in the experiment on COLO 205 colon and in the experiment on EKVX NSCLC was more than 100 µM throughout.

In the case of `OC[C@]1(n2nc3ccccc3n2)OC[C@@H]1c1ccccc1`, the TGI with 786-0 renal, with ACHN renal, in the experiment with T-47D breast, with NCI-H460 lung, in the experiment with U251 CNS and in the experiment with MOLT-4 leukemia was more than 100 µM in each case. Further, the TGI with KM12 colon, with HOP-62 NSCLC, in the experiment on SK-MEL-28 melanoma, in the experiment on UO-31 renal, in the experiment with COLO 205 colon and with EKVX NSCLC was more than 100 µM throughout.

Regarding `CC1=CCC2C3(C)CCC2(C(C)C)C1C3` (centres undefined) (tested in a mixture with another compound), the TGI with 786-0 renal is 47.3 µM; in the experiment with ACHN renal, 36.9 µM; in the experiment on T-47D breast, more than 100 µM; in the experiment with NCI-H460 lung, 32.9 µM; with U251 CNS, 50.8 µM; with MOLT-4 leukemia, 75.3 µM. The TGI with KM12 colon is 36.8 µM; in the experiment on HOP-62 NSCLC it was 57.5 µM; in the experiment with SK-MEL-28 melanoma it was 88.6 µM; in the experiment with UO-31 renal it was 82.3 µM; in the experiment on COLO 205 colon it was 65 µM; in the experiment with EKVX NSCLC it was 50.9 µM.

`C=C(C)C1CC/C(C)=C/CC[C@]2(C)O[C@H]2CC/C(COC(C)=O)=C\[C@@H]1O` (some centres undefined): the TGI with 786-0 renal, with ACHN renal, in the experiment with T-47D breast, in the experiment on NCI-H460 lung, in the experiment with U251 CNS and in the experiment on MOLT-4 leukemia was more than 50 µM throughout. In addition, the TGI with KM12 colon, with HOP-62 NSCLC, in the experiment on SK-MEL-28 melanoma, in the experiment on UO-31 renal, in the experiment on COLO 205 colon and in the experiment on EKVX NSCLC was more than 50 µM throughout.

On to `CCOc1ccc(NC(=O)/C(=N\NC(C)(C)C)C2C(=O)Nc3ccccc3S2=O)cc1` (centres undefined), for which the TGI with 786-0 renal, with ACHN renal, with T-47D breast, in the experiment with NCI-H460 lung, in the experiment with U251 CNS and with MOLT-4 leukemia was more than 100 µM in each case. Further, the TGI in the experiment on KM12 colon, with HOP-62 NSCLC, in the experiment with SK-MEL-28 melanoma, in the experiment with UO-31 renal, with COLO 205 colon and in the experiment with EKVX NSCLC was more than 100 µM in each case.

Regarding `CN(C)Cc1cc(C(C)(C)C)ccc1-c1ccc(C(C)(C)C)cc1CN(C)C`, the TGI in the experiment with 786-0 renal, in the experiment with ACHN renal, in the experiment on T-47D breast, with NCI-H460 lung, with U251 CNS and in the experiment with MOLT-4 leukemia was more than 100 µM each time. In addition, the TGI in the experiment with KM12 colon, with HOP-62 NSCLC, in the experiment on SK-MEL-28 melanoma, in the experiment on UO-31 renal, in the experiment on COLO 205 colon and in the experiment on EKVX NSCLC was more than 100 µM in each case.

Turning to `CN(C)CC1COC2Cc3ccccc3C1O2` (centres undefined), the TGI in the experiment on 786-0 renal, in the experiment with ACHN renal, in the experiment with T-47D breast, in the experiment on NCI-H460 lung, in the experiment on U251 CNS and in the experiment with MOLT-4 leukemia was more than 100 µM throughout. Further, the TGI with KM12 colon, in the experiment with HOP-62 NSCLC, in the experiment with SK-MEL-28 melanoma, with UO-31 renal, with COLO 205 colon and with EKVX NSCLC was more than 100 µM in each case.

As for `O=C(CCCNc1nc(-c2ccccc2)cs1)c1cccs1`, the TGI in the experiment with 786-0 renal, in the experiment with ACHN renal, in the experiment on T-47D breast, with NCI-H460 lung, with U251 CNS and in the experiment on MOLT-4 leukemia was more than 100 µM each time. For the same compound, the TGI in the experiment with KM12 colon, with HOP-62 NSCLC, in the experiment on SK-MEL-28 melanoma, with UO-31 renal, in the experiment with COLO 205 colon and in the experiment with EKVX NSCLC was more than 100 µM in each case.
